Laboratory results: ChEMBL document CHEMBL4219273, “Discovery of a novel olefin derivative as a highly potent and selective acetyl-CoA carboxylase 2 inhibitor with in vivo efficacy” (Bioorg Med Chem Lett, 2018)

Experiments:
Acetyl-CoA carboxylase 2 = Acetyl-CoA carboxylase 2 (Homo sapiens, UniProt O00763); experiment: Inhibition of recombinant human ACC2 assessed as reduction in conversion of acetyl-CoA to malonyl-CoA incubated for 1 to 3 hrs with substrate by MALDI-TOF-MS analysis
Acetyl-CoA carboxylase 1 = Acetyl-CoA carboxylase 1 (Homo sapiens, UniProt Q13085); experiment: Inhibition of recombinant human ACC1 assessed as reduction in conversion of acetyl-CoA to malonyl-CoA incubated for 1 to 3 hrs with substrate by MALDI-TOF-MS analysis
Homo sapiens = species: Homo sapiens; experiment: Selectivity ratio of IC50 for recombinant human ACC1 to IC50 for recombinant human ACC2
Cytochrome P450 1A2 = target: T1, Cytochrome P450 1A2 (Homo sapiens, UniProt P05177); experiment: Inhibition of CYP1A2 (unknown origin); format: ADME
T1 sequence (P05177 whole entry): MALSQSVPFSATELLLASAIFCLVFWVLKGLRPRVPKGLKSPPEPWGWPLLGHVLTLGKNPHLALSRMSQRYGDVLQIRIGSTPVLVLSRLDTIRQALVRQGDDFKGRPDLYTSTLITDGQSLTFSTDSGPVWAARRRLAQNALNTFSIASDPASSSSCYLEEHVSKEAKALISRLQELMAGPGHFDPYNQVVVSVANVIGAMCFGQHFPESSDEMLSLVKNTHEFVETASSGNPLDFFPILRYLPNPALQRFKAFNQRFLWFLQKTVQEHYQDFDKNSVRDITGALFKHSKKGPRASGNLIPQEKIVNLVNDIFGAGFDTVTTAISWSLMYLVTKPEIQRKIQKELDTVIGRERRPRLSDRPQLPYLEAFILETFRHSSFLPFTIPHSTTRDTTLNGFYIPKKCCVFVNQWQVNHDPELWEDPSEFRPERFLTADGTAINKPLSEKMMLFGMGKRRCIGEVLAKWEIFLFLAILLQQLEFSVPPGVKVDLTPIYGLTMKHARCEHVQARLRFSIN

Cytochrome P450 2C19 = Cytochrome P450 2C19 (Homo sapiens, UniProt P33261); experiment: Inhibition of CYP2C19 (unknown origin); format: ADME
Sequence of Cytochrome P450 2C19 (P33261 whole entry): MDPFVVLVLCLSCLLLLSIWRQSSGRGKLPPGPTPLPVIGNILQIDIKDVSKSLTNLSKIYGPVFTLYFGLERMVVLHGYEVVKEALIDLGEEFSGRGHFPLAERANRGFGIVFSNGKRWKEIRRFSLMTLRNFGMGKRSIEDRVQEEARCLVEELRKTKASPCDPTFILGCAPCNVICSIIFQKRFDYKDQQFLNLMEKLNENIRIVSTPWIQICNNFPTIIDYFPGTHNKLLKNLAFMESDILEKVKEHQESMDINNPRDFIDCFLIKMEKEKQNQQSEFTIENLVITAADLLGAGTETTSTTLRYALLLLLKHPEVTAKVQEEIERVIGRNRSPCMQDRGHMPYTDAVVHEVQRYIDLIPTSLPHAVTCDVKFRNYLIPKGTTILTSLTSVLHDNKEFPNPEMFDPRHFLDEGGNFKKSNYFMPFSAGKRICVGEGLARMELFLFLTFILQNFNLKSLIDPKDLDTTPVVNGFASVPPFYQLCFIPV

Cytochrome P450 2C9 = Cytochrome P450 2C9 (Homo sapiens, UniProt P11712); experiment: Inhibition of CYP2C9 (unknown origin); format: ADME
Sequence of Cytochrome P450 2C9 (P11712 whole entry): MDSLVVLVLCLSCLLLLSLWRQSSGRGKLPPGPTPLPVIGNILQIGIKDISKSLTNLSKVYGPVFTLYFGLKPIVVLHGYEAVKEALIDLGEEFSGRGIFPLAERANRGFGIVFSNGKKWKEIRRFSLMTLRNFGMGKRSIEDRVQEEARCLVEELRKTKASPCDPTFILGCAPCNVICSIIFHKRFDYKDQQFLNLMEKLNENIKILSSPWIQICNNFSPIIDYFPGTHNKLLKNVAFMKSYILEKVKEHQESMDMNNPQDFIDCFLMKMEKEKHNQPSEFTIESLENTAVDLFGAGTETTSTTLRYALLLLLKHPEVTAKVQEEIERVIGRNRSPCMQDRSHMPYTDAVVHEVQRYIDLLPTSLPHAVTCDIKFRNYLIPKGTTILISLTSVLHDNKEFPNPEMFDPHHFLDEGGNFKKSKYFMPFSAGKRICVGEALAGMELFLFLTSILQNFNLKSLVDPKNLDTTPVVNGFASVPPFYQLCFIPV

Cytochrome P450 2D6 = Cytochrome P450 2D6 (Homo sapiens, UniProt P10635); experiment: Inhibition of CYP2D6 (unknown origin); format: ADME
Sequence of Cytochrome P450 2D6 (P10635 whole entry): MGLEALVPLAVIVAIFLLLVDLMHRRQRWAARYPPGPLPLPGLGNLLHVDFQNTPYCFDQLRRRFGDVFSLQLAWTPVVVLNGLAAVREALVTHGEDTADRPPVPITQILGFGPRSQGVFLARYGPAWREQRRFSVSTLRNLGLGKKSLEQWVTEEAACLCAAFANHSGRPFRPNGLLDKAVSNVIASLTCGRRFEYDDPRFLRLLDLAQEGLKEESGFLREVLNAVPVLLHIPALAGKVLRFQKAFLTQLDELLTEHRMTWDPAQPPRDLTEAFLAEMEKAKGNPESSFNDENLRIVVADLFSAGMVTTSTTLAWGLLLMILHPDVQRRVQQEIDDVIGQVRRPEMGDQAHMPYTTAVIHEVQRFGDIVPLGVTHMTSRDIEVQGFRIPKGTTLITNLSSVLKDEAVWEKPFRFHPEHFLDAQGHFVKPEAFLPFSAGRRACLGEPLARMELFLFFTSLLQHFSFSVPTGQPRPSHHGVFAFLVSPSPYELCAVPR

Cytochrome P450 3A4 = Cytochrome P450 3A4 (Homo sapiens, UniProt P08684); experiment: Inhibition of CYP3A4 (unknown origin); format: ADME
Sequence of Cytochrome P450 3A4 (P08684 whole entry): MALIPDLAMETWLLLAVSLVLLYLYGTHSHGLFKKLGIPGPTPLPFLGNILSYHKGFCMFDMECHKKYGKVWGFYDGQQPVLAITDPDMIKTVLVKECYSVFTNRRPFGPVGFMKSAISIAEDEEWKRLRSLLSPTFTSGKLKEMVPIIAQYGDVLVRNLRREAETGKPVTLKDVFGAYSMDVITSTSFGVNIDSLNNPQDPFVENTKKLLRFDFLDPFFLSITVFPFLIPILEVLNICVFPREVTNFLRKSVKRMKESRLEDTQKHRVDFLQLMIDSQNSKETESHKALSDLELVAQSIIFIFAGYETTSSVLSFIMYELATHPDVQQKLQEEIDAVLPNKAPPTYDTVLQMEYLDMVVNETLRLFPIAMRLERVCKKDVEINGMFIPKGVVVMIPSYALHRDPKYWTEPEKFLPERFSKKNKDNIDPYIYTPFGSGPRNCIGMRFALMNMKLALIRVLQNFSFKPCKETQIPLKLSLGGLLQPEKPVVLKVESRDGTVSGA

[1] = Metabolic stability in human liver microsomes assessed as parent compound remaining after 30 mins; format: ADME, microsome; settings: read-out: Stability
[2] = Metabolic stability in rat liver microsomes assessed as parent compound remaining after 30 mins; format: ADME, microsome; settings: read-out: Stability
Mus musculus [3] = experiment: Suppression of malonyl-CoA levels in C57BL/6 mouse skeletal muscle at 1 mg/kg, po measured at 6 hrs post dose by LC-MS analysis relative to control; format: functional
Mus musculus [4] = experiment: Suppression of malonyl-CoA levels in C57BL/6 mouse skeletal muscle at 2.5 mg/kg, po measured at 6 hrs post dose by LC-MS analysis relative to control; format: functional
[5] = Plasma concentration in C57BL/6 mouse at 1 mg/kg, po measured at 6 hrs post dose by LC-MS analysis; format: ADME, organism-based
[6] = Plasma concentration in C57BL/6 mouse at 2.5 mg/kg, po measured at 6 hrs post dose by LC-MS analysis; format: ADME, organism-based
[7] = AUC (0 to 24 hrs) in rat at 50 mg/kg/day, po administered for 4 consecutive days measured on day 1; format: ADME, organism-based; parameters: dose 50 mg/kg/day, time < 24 hr, route oral; settings: in vivo
[8] = Cmax in rat at 50 mg/kg/day, po administered for 4 consecutive days measured on day 1; format: ADME, organism-based; parameters: dose 50 mg/kg/day, route oral; settings: in vivo
Rattus norvegicus [9] = experiment: Toxicity in rat assessed as abnormal clinical signs at 50 mg/kg/day, po administered for 4 consecutive days; format: organism-based; settings: in vivo
Rattus norvegicus [10] = experiment: Toxicity in rat assessed as histopathological lesions in heart at 50 mg/kg/day, po administered for 4 consecutive days; format: organism-based; settings: in vivo
[11] = Total clearance in C57BL/6 mouse at 0.2 mg/kg, iv; format: ADME, organism-based; settings: in vivo
[12] = AUC in C57BL/6 mouse at 2.5 mg/kg, po; format: ADME, organism-based; settings: in vivo
[13] = Cmax in C57BL/6 mouse at 2.5 mg/kg, po; format: ADME, organism-based; parameters: dose 2.5 mg/kg, route oral; settings: in vivo
[14] = Oral bioavailability in C57BL/6 mouse at 2.5 mg/kg; format: ADME, organism-based; settings: in vivo

Sequence of Acetyl-CoA carboxylase 2 (O00763 whole entry): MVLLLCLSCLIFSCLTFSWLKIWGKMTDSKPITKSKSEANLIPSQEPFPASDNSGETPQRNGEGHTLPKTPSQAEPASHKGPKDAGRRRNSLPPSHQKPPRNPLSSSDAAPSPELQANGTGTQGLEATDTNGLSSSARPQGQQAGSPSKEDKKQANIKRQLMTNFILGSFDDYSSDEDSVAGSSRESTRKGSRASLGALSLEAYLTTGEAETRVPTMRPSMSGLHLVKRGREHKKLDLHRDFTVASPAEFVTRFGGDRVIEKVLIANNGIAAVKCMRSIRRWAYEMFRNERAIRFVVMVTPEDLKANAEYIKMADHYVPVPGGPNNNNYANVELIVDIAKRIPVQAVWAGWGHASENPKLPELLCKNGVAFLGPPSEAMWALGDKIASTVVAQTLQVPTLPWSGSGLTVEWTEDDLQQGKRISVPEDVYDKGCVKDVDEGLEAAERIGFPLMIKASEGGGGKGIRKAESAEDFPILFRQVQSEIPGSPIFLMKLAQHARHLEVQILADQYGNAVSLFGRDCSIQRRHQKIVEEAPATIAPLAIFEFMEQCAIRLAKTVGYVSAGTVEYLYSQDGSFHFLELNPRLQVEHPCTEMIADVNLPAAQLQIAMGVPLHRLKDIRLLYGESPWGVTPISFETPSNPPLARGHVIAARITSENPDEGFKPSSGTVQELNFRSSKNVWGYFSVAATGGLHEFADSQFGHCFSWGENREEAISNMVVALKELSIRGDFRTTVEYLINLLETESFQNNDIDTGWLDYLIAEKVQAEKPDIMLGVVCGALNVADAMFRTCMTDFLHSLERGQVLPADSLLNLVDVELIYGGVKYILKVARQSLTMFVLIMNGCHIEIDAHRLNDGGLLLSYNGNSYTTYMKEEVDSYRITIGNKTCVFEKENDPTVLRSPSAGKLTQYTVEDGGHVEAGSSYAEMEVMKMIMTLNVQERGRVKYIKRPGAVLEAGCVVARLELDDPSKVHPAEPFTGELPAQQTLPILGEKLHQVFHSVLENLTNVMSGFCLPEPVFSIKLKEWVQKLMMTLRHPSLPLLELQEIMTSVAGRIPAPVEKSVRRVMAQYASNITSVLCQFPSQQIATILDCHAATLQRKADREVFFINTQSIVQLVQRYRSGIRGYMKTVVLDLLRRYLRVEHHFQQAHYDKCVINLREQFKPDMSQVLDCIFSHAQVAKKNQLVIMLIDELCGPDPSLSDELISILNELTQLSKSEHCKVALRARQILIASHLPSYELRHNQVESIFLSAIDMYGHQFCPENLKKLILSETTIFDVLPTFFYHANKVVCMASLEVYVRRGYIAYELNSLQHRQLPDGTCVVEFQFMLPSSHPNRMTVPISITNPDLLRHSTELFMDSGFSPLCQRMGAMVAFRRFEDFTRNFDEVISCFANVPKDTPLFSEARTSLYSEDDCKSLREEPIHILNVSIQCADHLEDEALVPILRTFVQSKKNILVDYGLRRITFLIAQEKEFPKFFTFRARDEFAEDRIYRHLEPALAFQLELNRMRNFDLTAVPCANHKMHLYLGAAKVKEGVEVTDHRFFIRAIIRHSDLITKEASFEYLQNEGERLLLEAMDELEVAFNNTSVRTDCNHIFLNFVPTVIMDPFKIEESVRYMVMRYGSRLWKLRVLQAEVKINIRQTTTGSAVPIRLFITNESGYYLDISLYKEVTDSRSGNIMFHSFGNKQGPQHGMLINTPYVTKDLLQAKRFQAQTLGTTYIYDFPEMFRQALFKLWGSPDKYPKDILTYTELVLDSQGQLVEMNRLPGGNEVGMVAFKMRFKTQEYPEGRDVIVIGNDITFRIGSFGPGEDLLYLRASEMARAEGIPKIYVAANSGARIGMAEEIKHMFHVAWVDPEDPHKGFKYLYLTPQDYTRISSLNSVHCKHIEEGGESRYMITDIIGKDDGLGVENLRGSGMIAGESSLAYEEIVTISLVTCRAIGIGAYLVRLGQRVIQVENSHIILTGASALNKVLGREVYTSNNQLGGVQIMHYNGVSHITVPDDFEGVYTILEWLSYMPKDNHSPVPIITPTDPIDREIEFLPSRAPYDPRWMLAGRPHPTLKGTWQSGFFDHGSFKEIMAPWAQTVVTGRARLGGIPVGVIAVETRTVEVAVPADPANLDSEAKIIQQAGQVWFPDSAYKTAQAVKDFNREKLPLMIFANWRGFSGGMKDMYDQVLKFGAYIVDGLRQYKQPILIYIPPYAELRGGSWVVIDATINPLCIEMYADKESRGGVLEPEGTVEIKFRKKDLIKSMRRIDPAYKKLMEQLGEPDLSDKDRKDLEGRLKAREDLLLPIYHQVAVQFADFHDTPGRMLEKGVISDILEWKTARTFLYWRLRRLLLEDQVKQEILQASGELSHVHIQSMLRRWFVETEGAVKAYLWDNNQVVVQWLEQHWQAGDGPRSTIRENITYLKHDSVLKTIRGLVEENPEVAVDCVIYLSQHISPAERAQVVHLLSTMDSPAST

SMILES	IC50 (Acetyl-CoA carboxylase 2) [µM]	IC50 (Acetyl-CoA carboxylase 1) [µM]	Ratio IC50 (Homo sapiens)	IC50 (Cytochrome P450 1A2) [µM]	IC50 (Cytochrome P450 2C19) [µM]	IC50 (Cytochrome P450 2C9) [µM]	IC50 (Cytochrome P450 2D6) [µM]	IC50 (Cytochrome P450 3A4) [µM]	remaining at 0.5 h [1] [%]	remaining at 0.5 h [2] [%]	further results
CC(=O)N[C@@H](C)/C=C/c1ccc(Oc2cc3sc(C)nc3cc2Cl)nc1	0.473	52.1	110	> 20	> 20	> 20	> 20	> 20	94	83	
CC(=O)N[C@@H](C)/C=C/c1cnc(Oc2ccc(OC(C)C)cc2)s1	0.066	53.4	809	> 20	> 20	4.4	> 20	> 20			
CC(=O)N[C@@H](C)/C=C/c1cnc(Oc2ccc(OCC3CC3)cc2Cl)nc1	0.048	> 100	> 2080	> 20	> 20	> 20	> 20	> 20			
CC(=O)N[C@@H](C)/C=C/c1nnc(Oc2ccc(OCC3CC3)cc2Cl)s1	0.253	> 100	> 395	> 20	> 20	15	> 20	> 20			
CCOc1ccc(Oc2ncc(/C=C/[C@H](C)NC(C)=O)s2)cc1	0.079	> 100	> 1270	> 20	> 20	8.6	> 20	> 20			
CC(=O)N[C@@H](C)/C=C/c1cnc(Oc2ccc(OCC3CC3)cc2)s1	0.031	1.94	63	> 20	18	8.2	> 20	> 20			
CC(=O)N[C@@H](C)/C=C/c1ccc(Oc2ccc3nc(C(C)C)sc3c2F)nc1	0.0021	0.035	17	> 20	> 20	> 20	> 20	> 20	84	51	
CCOc1nc2ccc(Oc3ccc(/C=C/[C@H](C)NC(C)=O)cn3)c(Cl)c2s1	0.0019	1.95	1030	> 20	18	13	> 20	> 20	91	100	Activity (Mus musculus [3]): 20%; Activity (Mus musculus [4]): 41%; concentration at 6 h [5]: 1130 ng/mL; concentration at 6 h [6]: 2620 ng/mL; AUC(0-t) at 24 h [7]: 620 µg·h/mL; Cmax [8]: 34600 ng/mL; Activity (Rattus norvegicus [9]): Non-Toxic; Activity (Rattus norvegicus [10]): Non-Toxic; clearance [11]: 0.354 mL/min/kg; AUC [12]: 99.8 µg·h/mL; Cmax [13]: 4230 ng/mL; bioavailability [14]: 83.5%
CC(=O)N[C@@H](C)/C=C/c1ccc(Oc2ccc(OCC3CC3)cc2Cl)nn1	0.306	> 100	> 327	> 20	> 20	> 20	> 20	18			
CC(=O)N[C@@H](C)/C=C/c1ccc(Oc2ccc(OCC(F)F)cc2Cl)nc1	0.084	> 100	> 1190	> 20	> 20	> 20	> 20	> 20			
CC(=O)N[C@@H](C)/C=C/c1cnc(Oc2ccc(OCC3CC3)cc2Cl)n1C		37.2	82	> 20	> 20	10	> 20	> 20			
CC(=O)N[C@@H](C)/C=C/c1ccc(Oc2ccc3nc(C)sc3c2Cl)nc1	0.026	12.2	469	> 20	> 20	> 20	> 20	> 20	87	75	
CCOc1ccc(Oc2ccc(/C=C/[C@H](C)NC(C)=O)cn2)c(Cl)c1	0.046	> 100	> 2170	> 20	> 20	> 20	> 20	> 20			
CC(=O)N[C@@H](C)/C=C/c1ccc(Oc2ccc3nc(C(C)(C)O)sc3c2Cl)nc1	0.01	3.15	315	> 20	> 20	17	> 20	> 20	92	96	
CC(=O)N[C@@H](C)/C=C/c1cnc(Oc2ccc(OCC3CC3)cc2Cl)cn1	0.025	0.75	30	> 20	> 20	> 20	> 20	> 20			
CC(=O)N[C@@H](C)/C=C/c1ccc(Oc2ccc(OCC3CC3)cc2Cl)nc1		0.964	140	> 20	> 20	9.5	> 20	16			
COC(=O)N[C@@H](C)/C=C/c1cnc(Oc2ccc(OC(C)C)cc2)s1	0.076	> 100	> 1320	> 20	6.5	2.7	> 20	> 20			
CC(=O)N[C@@H](C)/C=C/c1cnc(Oc2ccc(OCC3CC3)cc2Cl)s1	0.013	1.27	98	> 20	14	3.5	> 20	> 20			
CC(=O)N[C@@H](C)/C=C/c1ccc(Oc2ccc3sc(C(C)C)nc3c2Cl)nc1	0.04	0.858	21	> 20	11	14	> 20	> 20	88	77	
CC(=O)N[C@@H](C)/C=C/c1ccc(Oc2ccc3nc(C(C)C)sc3c2C(F)(F)F)nc1	0.059	7.45	126	> 20	18	14	> 20	17	87	83	
CC(=O)N[C@@H](C)/C=C/c1ccc(Oc2ccc3nc(C(C)C)sc3c2Cl)nc1	0.0043	0.303	70	> 20	18	13	> 20	19	83	52	
CC(=O)N[C@@H](C)/C=C/c1ccc(Oc2ccc(OCCF)cc2Cl)nc1	0.186	> 100	> 537	> 20	> 20	> 20	> 20	> 20			
